In one experiment the target is Carbonic anhydrase 2 (Homo sapiens, UniProt P00918). The experiment is described as follows: Inhibition of recombinant human cytosolic carbonic anhydrase 2 expressed in Escherichia coli pretreated for 15 mins prior to testing by stopped-flow assay.
The target in the next experiment is Carbonic anhydrase 12 (Homo sapiens, UniProt O43570). The experiment is described as follows: Inhibition of recombinant human […] expressed in Escherichia coli pretreated for 15 mins prior to testing by stopped-flow assay.
Another experiment has as its target Carbonic anhydrase 1 (Homo sapiens, UniProt P00915). The experiment can be described thus: Inhibition of recombinant human cytosolic carbonic anhydrase 1 expressed in Escherichia coli pretreated for 15 mins prior to testing by stopped-flow assay.
For the next experiment, the target named is Carbonic anhydrase 9 (Homo sapiens, UniProt Q16790). The experiment is described as follows: Inhibition of recombinant human membrane bound carbonic anhydrase 9 expressed in Escherichia coli pretreated for 15 mins prior to testing by stopped-flow assay.

Chain of Carbonic anhydrase 12 (O43570 whole entry): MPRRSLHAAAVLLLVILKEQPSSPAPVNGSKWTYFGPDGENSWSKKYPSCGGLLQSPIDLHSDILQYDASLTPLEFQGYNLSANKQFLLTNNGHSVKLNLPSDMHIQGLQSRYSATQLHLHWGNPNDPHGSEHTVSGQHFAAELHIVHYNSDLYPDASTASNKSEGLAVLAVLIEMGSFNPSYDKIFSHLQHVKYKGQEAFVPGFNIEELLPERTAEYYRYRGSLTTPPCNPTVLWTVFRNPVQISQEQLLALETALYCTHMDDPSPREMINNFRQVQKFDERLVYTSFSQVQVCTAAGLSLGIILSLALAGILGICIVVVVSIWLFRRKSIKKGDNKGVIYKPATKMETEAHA
Chain of Carbonic anhydrase 1 (P00915 whole entry): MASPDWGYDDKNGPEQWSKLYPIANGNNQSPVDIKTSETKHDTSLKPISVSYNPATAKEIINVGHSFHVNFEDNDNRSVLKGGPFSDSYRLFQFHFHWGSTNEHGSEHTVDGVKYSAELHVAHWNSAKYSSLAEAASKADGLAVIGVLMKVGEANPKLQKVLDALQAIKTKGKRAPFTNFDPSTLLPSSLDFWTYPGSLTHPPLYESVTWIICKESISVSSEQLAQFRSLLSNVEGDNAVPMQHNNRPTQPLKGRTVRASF

With `NS(=O)(=O)c1ccc(NC(=S)N/N=C2\C(=O)Nc3c(Br)cc(Br)cc32)cc1`, the Ki on Carbonic anhydrase 2 is 687 nM; on Carbonic anhydrase 12, 6.3 nM; on Carbonic anhydrase 1, 698 nM; at Carbonic anhydrase 9, 58.1 nM.

Consider `NS(=O)(=O)c1ccc(NC(=S)N/N=C2\C(=O)Nc3c(F)cccc32)cc1`, for which the inhibition constant Ki at Carbonic anhydrase 2 turned out to be 26.9 nM; at Carbonic anhydrase 12, 45.5 nM; on Carbonic anhydrase 1, 57.6 nM; on Carbonic anhydrase 9, 20.8 nM.

Turning to `NS(=O)(=O)c1ccc(NC(=S)N/N=C2\C(=O)Nc3c(Cl)cccc32)cc1`, the Ki at Carbonic anhydrase 2 was 426 nM; at Carbonic anhydrase 12 it was 87.3 nM; on Carbonic anhydrase 1, 76.1 nM; on Carbonic anhydrase 9 it was 13.3 nM.

Regarding `NS(=O)(=O)c1ccc(NC(=S)N/N=C2\C(=O)Nc3c(Cl)cc(Cl)cc32)cc1`, the Ki at Carbonic anhydrase 2 stood at 782 nM; on Carbonic anhydrase 12, 82.3 nM; on Carbonic anhydrase 1, 554 nM; at Carbonic anhydrase 9 it was 21.3 nM.

As for `NS(=O)(=O)c1ccc(NC(=S)N/N=C2\C(=O)Nc3ccc([N+](=O)[O-])cc32)cc1`, the Ki at Carbonic anhydrase 2 is 32 nM; on Carbonic anhydrase 12 it was 4.1 nM; at Carbonic anhydrase 1 it was 68.8 nM; at Carbonic anhydrase 9, 19.5 nM.

As to `NS(=O)(=O)c1ccc(NC(=S)N/N=C2\C(=O)Nc3ccc(Cl)cc32)cc1`, the Ki at Carbonic anhydrase 2 was 616 nM; on Carbonic anhydrase 12 it was 5.8 nM; on Carbonic anhydrase 1, 650 nM; on Carbonic anhydrase 9, 54.2 nM.

For `Cc1ccc2c(c1)/C(=N/NC(=S)Nc1ccc(S(N)(=O)=O)cc1)C(=O)N2`, the inhibitory constant (Ki) at Carbonic anhydrase 2 is 735 nM; on Carbonic anhydrase 12, 5.7 nM; on Carbonic anhydrase 1, 744 nM; at Carbonic anhydrase 9, 62.3 nM.

Turning to `NS(=O)(=O)c1ccc(NC(=S)N/N=C2\C(=O)Nc3ccccc32)cc1`, the inhibitory constant (Ki) at Carbonic anhydrase 2 was found to be 936 nM; at Carbonic anhydrase 12, 6.9 nM; on Carbonic anhydrase 1, 1190 nM; at Carbonic anhydrase 9, 66.3 nM.

For `NS(=O)(=O)c1ccc(NC(=S)N/N=C2\C(=O)Nc3ccc(I)cc32)cc1`, the inhibitory constant (Ki) was 399 nM on Carbonic anhydrase 2, 5.9 nM on Carbonic anhydrase 12, 624 nM at Carbonic anhydrase 1 and 16.8 nM on Carbonic anhydrase 9.

Regarding `NS(=O)(=O)c1ccc(NC(=S)N/N=C2\C(=O)Nc3ccc(Br)cc32)cc1`, the Ki on Carbonic anhydrase 2 turned out to be 851 nM; on Carbonic anhydrase 12 it was 6.1 nM; on Carbonic anhydrase 1 it was 882 nM; at Carbonic anhydrase 9, 64.8 nM.

Consider `NS(=O)(=O)c1ccc(NC(=S)N/N=C2\C(=O)Nc3ccc(OC(F)(F)F)cc32)cc1`, for which the Ki was 420 nM on Carbonic anhydrase 2, 6 nM at Carbonic anhydrase 12, 481 nM on Carbonic anhydrase 1 and 45.7 nM on Carbonic anhydrase 9.

On to `NS(=O)(=O)c1ccc(NC(=S)N/N=C2\C(=O)Nc3ccc(S(=O)(=O)O)cc32)cc1`, for which the Ki on Carbonic anhydrase 2 came out at 897 nM; at Carbonic anhydrase 12, 1.2 nM; at Carbonic anhydrase 1, 901 nM; at Carbonic anhydrase 9, 34.4 nM.

With `NS(=O)(=O)c1ccc(NC(=S)N/N=C2\C(=O)Nc3ccc(F)cc32)cc1`, the inhibitory constant (Ki) is 551 nM at Carbonic anhydrase 2, 4.5 nM at Carbonic anhydrase 12, 558 nM at Carbonic anhydrase 1 and 38.8 nM on Carbonic anhydrase 9.

By Ki is commonly meant the dissociation constant of the complex between target and ligand, obtained from inhibition or displacement.

The values above are taken from ChEMBL document CHEMBL4033724, “Novel sulfonamide-containing 2-indolinones that selectively inhibit tumor-associated alpha carbonic anhydrases” (Bioorg Med Chem, 2017).
